Data on two molecules can be found in patent publication US20110136752A1, “NOVEL ANTIBIOTICS” (priority 2009, published 2011).

The subject of data set [1] is NIH3T3 mouse embryonic fibroblasts. Kind of data set: Mammalian cytotoxicity, CellTiter 96 AQueous One Solution assay. In kind it is cell-based. The settings on record: NIH3T3 cells, 24 hr, highest tested concentration 16 μg/ml. The method, then: Mammalian cytotoxicity assays were performed using NIH3T3 mouse embryonic fibroblasts (ATCC CRL-1658), and cytotoxicity was measured using the CellTiter 96® AQueous One Solution Cell Proliferation Assay (Promega, Madison, Wis., Cat: G3582), according to the manufacturer's recommendations.
100× working stocks of 2-fold serial dilution of NOVO4 in DMSO were created in a 96 well format. The highest concentration of the 100× concentration (working stock) was prepared by adding […] of the stock solution of NOVO4 (10 mg/ml in DMSO) for every 0.68 μl of DMSO to well A02. 0.5 μl of this 100× stock was added for every 0.5 μl of DMSO in well A03 to create a total of 7 two-fold serial dilution series, from 1600 μg/ml to 25 μg/ml (from highest in well A02 to A08,). A DMSO control was also included (wells in column A01, and A12). […]
The plate was visually inspected under a dissecting microscope, and the absorbance at 490 nm was read using a Spectramax Plus Spectrophotometer, with wells A12, and B12 reserved as blanks The signal of compound alone (well A11) was verified not to contribute to the absorbance at this wavelength. Next, 20 μl of the CellTiter 96® AQueous One Solution Cell Proliferation Assay (Promega, Madison, Wis., Cat: G3582) was added to each well, and the plate was read after 3 hr of incubation. […]

The test system of data set [2] is human red blood cells. In kind it is cell-based. The method, then: The effect of NOVO4 on the hemolysis of human red blood cells was also tested. A total of 10 ml of expired packed red blood cells from the blood bank was gently added to 80 ml of PBS (Phosphate buffered saline), and pelleted at 1000 g for 5 minutes at 4° C. The upper phase and buffy layer (white blood cells) were removed. The cells are repeatedly washed by gentle mixing with PBS, and centrifugation until the upper phase is clear. In the last wash, 40 ml of 1× PBS with 0.05% BSA was added to half of the red blood cells while 40 ml of 1× PBS without BSA was added to the other half. The upper phase of the last wash was removed to leave a total volume of about 10 ml. The concentration of the red blood cells was measured by using the spectrophometer at 600 nm. An aliquot of the cells are diluted to a final density OD600 of 24 in 1× PBS, and another to a final density OD600 of 24 in 1× PBS with 0.05% BSA.
The compound NOVO4 is two-fold serially diluted (similar to that described above for mammalian NIH3T3 cytotoxicity assay) as 100× concentration in DMSO, ranging from 0.4 μg/ml to 400 μg/ml. […] After thorough mixing, the A450 was read using a Spectramax Plus Spectrophotometer, using wells with only 1× PBS as blanks […]

Data set [3] can be described thus: Single-dose acute toxicity in mice. The settings on record: mouse, in vivo; female CD-1 mice, SC, 3 doses of 50 mg/kg 2 hours apart in 0.5% methylocellulose, followed for 2 days. As for the experimental part: Single-dose, acute toxicity experiments were carried out in female CD-1 mice. The animals were acclimated for 3 days and were 7 weeks old at the start of the experiments. Their weight ranged from 16 to 24 g.
In order to determine the maximum tolerated dose, a group of 3 mice was dosed with a total of 4.9 mg/kg of NOVO4 (10% DMSO in saline) delivered as two separate IV doses, 2 hr apart. In addition, another 3 mice were dosed subcutaneously with a total of 150 mg/kg of NOVO4 in 0.5% methylocellulose, delivered as 3 doses of 50 mg/kg each, 2 hours apart. The mice were then followed for 2 days.
This indicated a very high MTD of >150 mg/kg for NOVO4.

In data set [4] the test system is different bacterial test strains. Kind of data set: Effect of serum or BSA supplement on MIC of NOVO4. In kind it is cell-based. The method, then:
The lowest concentration of NOVO4 without any cell growth is the MIC (Minimal Inhibitory Concentration) of NOVO4. The data is the MIC of NOVO4 on different bacterial test strains in the presence of Mueller Hinton broth (MHB) or with MHB supplemented with either […].
These studies follow the procedure for determining the MIC described above in Example 5. Briefly, two-fold serial dilution of the NOVO4 compound are added to the test cells of interest, MRSA and VRE, and the lowest concentration of compound that inhibits growth after a period of incubation is considered to be the MIC. To determine the effect of serum on the activity of NOVO4, MIC in the absence of serum is compared to MIC in media supplemented with 10% calf bovine serum (ATCC 30-2030).

In data set [1], `CC1\C=C/C=C\C=C/C=C\C=C/C(OC2OCC(O)C(O)C2N)C(C)(O)/C=C/C=C\C=C/C=C/C(=O)NC1` (stereo not drawn) [NOVO4] returned an LD50 greater than 16 µg/mL. Besides, the hemolysis result in data set [2] was “no significant hemolysis”. For the same molecule, in data set [3], the MTD at 2 days was greater than 150 mg/kg. Besides, the “effect of 0.05% BSA on the MIC” value in data set [4] (MHB versus MHB + 0.05% BSA, depending on the test organisms) is given as “either unchanged or lowered sightly”. Besides, the “effect of calf bovine serum on the MIC” value in data set [4] (MHB versus media supplemented with 10% calf bovine serum) was “no significant effect”.
Triton X100 [reference compound]: the “A450 (hemoglobin released by lysis of red blood cells)” value in data set [2] is 0.41.
